# According to paper PMC4685012 (Bioorganic & medicinal chemistry, 2015):
# Assays:
# Vero cells = experiment: Cell viability; assay type: cell-based, monkey; conditions: Primates, 72 h, read-out: Anti-proliferative activity IC50, Vero
# A549 cells = experiment: Cell viability; assay type: cell-based; conditions: for Antiproliferative activity against A549, in words: A549 cells
# NF-κB = NF-κB luciferase assay in NTHi-stimulated BEAS-2B cells; assay type: cell-based, human
# MCF-7 cells = experiment: Cell viability; assay type: cell-based; conditions: for Antiproliferative activity against MCF-7, in words: MCF-7 cells
# [1] = system: TNF-α, IL-1α, IL-1β mRNA expression; experiment: Quantitative RT-PCR of NTHi-induced cytokine mRNA in BEAS-2B cells; assay type: cell-based, human; conditions: 1 µM, 2 h pretreatment, 1.5 h NTHi, relative to SAHA
# HDAC6 = target: T1, HDAC6 (Homo sapiens, UniProt Q9UBN7); experiment: HDAC6 inhibition, label-free mass spectrometry-based SAMDI assay; assay type: biochemical; conditions: vs 26e as printed
# T1 sequence (Q9UBN7 1-1215): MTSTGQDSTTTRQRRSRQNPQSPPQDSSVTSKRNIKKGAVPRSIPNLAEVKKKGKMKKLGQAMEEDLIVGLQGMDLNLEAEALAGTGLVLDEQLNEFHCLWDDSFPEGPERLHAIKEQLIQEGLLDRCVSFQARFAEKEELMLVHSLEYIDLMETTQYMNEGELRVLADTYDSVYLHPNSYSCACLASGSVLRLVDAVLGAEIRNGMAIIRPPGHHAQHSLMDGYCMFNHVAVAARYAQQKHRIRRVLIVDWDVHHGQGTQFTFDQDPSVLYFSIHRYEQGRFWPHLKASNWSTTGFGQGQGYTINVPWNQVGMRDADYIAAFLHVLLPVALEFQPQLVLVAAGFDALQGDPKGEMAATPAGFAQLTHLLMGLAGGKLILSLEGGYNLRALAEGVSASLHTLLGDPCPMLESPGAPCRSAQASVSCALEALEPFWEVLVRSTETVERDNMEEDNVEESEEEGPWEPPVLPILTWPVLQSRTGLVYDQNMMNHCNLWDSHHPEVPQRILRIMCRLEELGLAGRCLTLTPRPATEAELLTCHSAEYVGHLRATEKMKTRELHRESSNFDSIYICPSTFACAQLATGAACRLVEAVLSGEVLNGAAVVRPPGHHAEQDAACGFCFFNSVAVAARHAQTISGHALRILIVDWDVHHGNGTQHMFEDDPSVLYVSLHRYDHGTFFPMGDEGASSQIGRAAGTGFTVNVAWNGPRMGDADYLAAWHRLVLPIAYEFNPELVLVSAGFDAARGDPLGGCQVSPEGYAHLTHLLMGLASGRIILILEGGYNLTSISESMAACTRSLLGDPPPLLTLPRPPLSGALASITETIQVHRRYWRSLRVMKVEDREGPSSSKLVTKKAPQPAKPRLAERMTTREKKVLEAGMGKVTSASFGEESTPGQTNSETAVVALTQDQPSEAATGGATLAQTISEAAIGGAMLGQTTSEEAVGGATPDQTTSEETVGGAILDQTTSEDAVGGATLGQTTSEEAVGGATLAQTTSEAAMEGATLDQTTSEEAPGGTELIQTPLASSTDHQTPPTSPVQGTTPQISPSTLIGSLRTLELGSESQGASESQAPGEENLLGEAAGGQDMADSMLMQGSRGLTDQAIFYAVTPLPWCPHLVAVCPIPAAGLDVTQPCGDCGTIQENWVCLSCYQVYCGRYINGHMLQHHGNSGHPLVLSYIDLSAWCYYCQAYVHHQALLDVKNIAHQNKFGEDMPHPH
# HDAC8 = target: T2, HDAC8 (Homo sapiens, UniProt Q9BY41); experiment: HDAC8 inhibition, label-free mass spectrometry-based SAMDI assay; assay type: biochemical; conditions: vs 26e as printed
# T2 sequence (Q9BY41 1-377): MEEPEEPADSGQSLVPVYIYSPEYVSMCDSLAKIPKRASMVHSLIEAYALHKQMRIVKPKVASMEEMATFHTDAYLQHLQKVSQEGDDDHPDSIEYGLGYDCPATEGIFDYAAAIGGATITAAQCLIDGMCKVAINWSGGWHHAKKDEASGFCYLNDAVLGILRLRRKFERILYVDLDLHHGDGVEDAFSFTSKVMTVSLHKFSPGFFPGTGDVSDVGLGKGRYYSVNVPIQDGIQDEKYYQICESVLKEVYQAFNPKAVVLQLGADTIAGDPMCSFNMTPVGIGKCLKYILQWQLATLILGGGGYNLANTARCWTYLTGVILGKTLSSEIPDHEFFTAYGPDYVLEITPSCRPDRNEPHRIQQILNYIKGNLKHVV
# HDAC1/2 = conditions: read-out: HDAC1/2 IC50; cited from earlier work
SMILES,"Antiproliferative activity against A549, in words (A549 cells)","Antiproliferative activity against MCF-7, in words (MCF-7 cells)","Suppression of NTHi-induced TNF-α, IL-1α, IL-1β mRNA expression [1]",also measured
"O=C(CCCCCCC(=O)Nc1ccccc1)NO [SAHA, suberoylanilide hydroxamic acid, reference compound]",,,,IC50 (Vero cells): 1030 ± 90 nM
"CC[C@H]1OC(=O)[C@H](C)C(=O)[C@H](C)[C@@H](O[C@@H]2O[C@H](C)C[C@H](N(C)Cc3cccc(-c4cn(CCCCCC(=O)NO)nn4)c3)[C@H]2O)[C@@](C)(OC)C[C@@H](C)C2=NCCN3C(=O)O[C@@]1(C)[C@H]3[C@H]2C [Compound 25a, (Tricyclic Ketolide-3′-(N-(3-triazolylbenzyl)))-N-hydroxyhexanamide]",non-cytotoxic,non-cytotoxic,,"IC50 (A549 cells; Homo sapiens, A549, 72 h, read-out: Anti-proliferative activity IC50, A549): > 20000 nM; Effect on NF-κB activation, in words (NF-κB; NTHi infected BEAS-2B cells, 1 µM pre-screen): suppressing NF-κB activation; NF-κB inhibition IC50 (NF-κB; NTHi-stimulated BEAS-2B cells, luciferase): no dose-dependent effect; IC50 (MCF-7 cells; Homo sapiens, MCF7, 72 h, read-out: Anti-proliferative activity IC50, MCF-7): > 20000 nM"
CC[C@@H]1OC(=O)[C@@H](C)[C@H](O[C@H]2C[C@@](C)(OC)[C@](O)(CN(C)Cc3ccc(-c4cn(CCCCCCC(=O)NO)nn4)cc3)[C@H](C)O2)[C@H](C)[C@H](O[C@@H]2O[C@H](C)C[C@H](N(C)C)[C@H]2O)[C@@](C)(OC)C[C@H](C)C(=O)[C@@H](C)[C@@H](O)[C@@]1(C)O [Compound 38f],potently inhibited,potently inhibited,more significantly suppressed,
"CC[C@@H]1OC(=O)[C@@H](C)[C@H](O[C@H]2C[C@@](C)(OC)[C@@H](O)[C@H](C)O2)[C@@H](C)[C@H](O[C@H]2O[C@@H](C)C[C@@H](N(C)C)[C@@H]2O)[C@](C)(O)C[C@H](C)CN(Cc2ccc(-c3cn(CCCCCCC(=O)NO)nn3)cc2)[C@H](C)[C@H](O)[C@@]1(C)O [Compound 8f, (Azithromycin-(N10-(4-triazolylbenzyl)))-N-hydroxyheptanamide]",,,more significantly suppressed,
"CC[C@H]1OC(=O)[C@H](C)C(=O)[C@H](C)[C@@H](O[C@@H]2O[C@H](C)C[C@H](N(C)Cc3cccc(-c4cn(CCCCCCC(=O)NO)nn4)c3)[C@H]2O)[C@@](C)(OC)C[C@@H](C)C2=NCCN3C(=O)O[C@@]1(C)[C@H]3[C@H]2C [Compound 25b, (Tricyclic Ketolide-3′-(N-(3-triazolylbenzyl)))-N-hydroxyheptanamide]",,potently inhibited,,Fold more potent against HDAC6 than 26e (HDAC6): approximately 2 fold; Fold more potent against HDAC8 than 26e (HDAC8): ~5 fold
CC[C@H]1OC(=O)[C@H](C)C(=O)[C@H](C)[C@@H](O[C@@H]2O[C@H](C)C[C@H](N(C)Cc3ccc(-c4cn(CCCCCCC(=O)NO)nn4)cc3)[C@H]2O)[C@@](C)(OC)C[C@@H](C)C2=NCCN3C(=O)O[C@@]1(C)[C@H]3[C@H]2C [Compound 26f],,,more significantly suppressed,
"CC[C@@H]1OC(=O)[C@@H](C)[C@H](O[C@@H]2C[C@](C)(OC)[C@@](O)(CN(C)C)[C@@H](C)O2)[C@H](C)[C@H](O[C@@H]2O[C@H](C)C[C@H](N(C)Cc3ccc(-c4cn(CCCCCCC(=O)NO)nn4)cc3)[C@H]2O)[C@@](C)(OC)C[C@H](C)C(=O)[C@@H](C)[C@@H](O)[C@@]1(C)O [Compound 49b, (Clarithromycin-(4′-N-(4-benzyltriazolyl))-4′′-(N,N-dimethylaminomethyl))-N-hydroxyheptanamide]",potently inhibited,potently inhibited,,
CC[C@H]1OC(=O)[C@@H](C)[C@H](O[C@H]2C[C@@](C)(OC)[C@@H](O)[C@H](C)O2)[C@H](C)[C@H](O[C@H]2O[C@@H](C)C[C@@H](N(C)Cc3ccc(-c4cn(CCCCCCC(=O)NO)nn4)cc3)[C@@H]2O)[C@@](C)(O)C[C@H](C)CN(C)[C@@H](C)[C@H](O)[C@@]1(C)O [Compound 17f],,,,IC50 (HDAC1/2): 13.9 nM
